Test results taken from patent US10407445B2, “Hepatitis C virus inhibitors” (ENANTA PHARMACEUTICALS, INC., priority 2013, dated 2019).

Experiments:
Assay type in all cases: cell-based
[1] = system: GT1a replicon encoding NS5A mutation Y93H; test: Transient replication assay, GT1a replicon with NS5A mutation Y93H; details: Hepatitis C virus, read-out: EC50 1a Y93H
[2] = system: GT1a replicon encoding NS5A mutation M28T; test: Transient replication assay, GT1a replicon with NS5A mutation M28T; details: Hepatitis C virus, read-out: EC50 1a M28T
[3] = system: GT1a replicon encoding NS5A mutation Y93C; test: Transient replication assay, GT1a replicon with NS5A mutation Y93C; details: Hepatitis C virus, read-out: EC50 1a Y93C
[4] = system: HCV GT 1b replicon; test: HCV replicon assay, stable GT 1b replicon (Renilla luciferase); details: Hepatitis C virus, GT1B, 72 h
Protocol: The activity of compounds was determined against HCV replicons representing genotypes (GT) 1a, 1b, 2a, and 3a. To generate stable Huh-7.5-based cell lines, HCV replicons were engineered to express the Renilla luciferase reporter (hRluc) fused to the neomycin phosphotransferase (Neo) gene. GT2a and GT3a HCV replicons were based on the JFH-1 subgenomic replicon (Kato et al. 2003 Gastroenterology, 125:1808-1817), in which the NS5A gene was replaced with that of strains J6 and S52 (GT2a and G3a, respectively). The activity of compounds against GT1a replicons encoding NS5A mutations (M28T, Q30R, L31M, Y93C, and Y93H) was also determined in a transient replication assay. The parental GT1a and GT2a replicons (pH/SG-Neo(L+I) and pSG-Neo-JFH1, respectively) were licensed from Apath LLC (Saint Louis, Mo.). The parental GT 1b replicon (pFKi389lucubineo_3_3′_ET) was licensed from ReBLikon GmbH (Germany). HCV replicons were constructed by standard molecular biology techniques described below. All replicon constructs were verified by restriction enzyme digestion and DNA sequencing.
The hRluc-Neo cassette was PCR amplified from pF9 cytomegalovirus (CMV) hRluc-Neo Flexi(R) (Promega) using Accuprime Super Mix II (Invitrogen) and the following primers, which introduce restriction sites: […]
The amplification product was subcloned into pCR2.1-TOPO (Invitrogen). The resulting plasmid was digested with AscI and NotI, and the excised hRluc-Neo fragment was ligated using the Roche Quick Ligation Kit (Roche) into pFKi389lucubineo_3_3′_ET digested with the same enzymes.
Stable HCV replicon cell lines were grown in complete media (Dulbecco's modified Eagle medium [DMEM], 2 mM L-glutamine, 0.1 mM essential amino acids, 1 mM sodium pyruvate, 10% heat inactivated fetal bovine serum) with the addition 500 μg/ml […] (G418). Huh7-lunet cells were maintained in the same medium without the addition of G418. Cells were routinely passaged at a dilution of 1:4 two times a week. The assay medium for both luciferase reporter HCV replicon and cytotoxicity assays used phenol red-free DMEM and lacked G418. For each stable replicon assay, a sixteen point half-log dilution series of compound was stamped (0.5 ul compound per well) into three replica 384-well plates, to which cells were added directly (4000 cells/well). For the transient replication assay, Huh7-lunet cells in ice-cold phosphate buffered saline (PBS) were electroporated (BioRad electroporator; 950 uF, 270V) with 10 ug purified in vitro transcribed HCV replicon RNA, followed by resuspension in complete media and plating (8000 cells/well) into compound stamped 384-well plates. Luciferase activity of compound-treated cells was measured relative to DMSO-treated cells after 72 h incubation using RENILLA-GLO™ Luciferase Assay (Promega). Cytotoxicity (CC50) in the GT1b replicon cell line was analyzed using CELL TITER-GLO™ (Promega).
The compounds of the present invention can be effective against the HCV 1b genotype. It should also be understood that the compounds of the present invention can inhibit multiple genotypes of HCV. In one embodiment compound of the present invention are active against the 1a, 1b, 2a, 2b, 3a, 4a, and 5a genotypes. In another embodiment compound of the present invention are active against the HCV resistant mutants. […] EC50s are in pM against HCV GT 1a and GT 1b; and nM against GT 2a-J6, GT 3a and GT1a resistant variants (M28T, Q30R, L31V, Y93C and Y93H).

[5] = system: GT1a replicon encoding NS5A mutation L31V; test: Transient replication assay, GT1a replicon with NS5A mutation L31V; details: Hepatitis C virus, read-out: EC50 1a L31V

Compound | EC50 [1] [nM] | EC50 [2] [nM] | EC50 [3] [nM] | EC50 [4] [nM] | EC50 [5] [nM]
COC(=O)N[C@H](C(=O)N1C[C@]2(CCCOC2)C[C@H]1c1nc2ccc3cc(-c4ccc5c(ccc6nc([C@@H]7C[C@@]8(CCCOC8)CN7C(=O)[C@@H](NC(=O)OC)C(C)C)[nH]c65)c4)ccc3c2[nH]1)C(C)C [Compound 31] | 0.2 | 0.007 | 0.007 | 0.058 | 0.03
COC(=O)N[C@H](C(=O)N1CCC[C@H]1c1nc2ccc3cc(-c4ccc5c(ccc6nc([C@@H]7C[C@@]8(CCCOC8)CN7C(=O)[C@@H](NC(=O)OC)C(C)C)[nH]c65)c4)ccc3c2[nH]1)C(C)C [Compound 48] | 2 | 0.05 | 0.02 | 0.009 | 0.5
COC(=O)N[C@H](C(=O)N1C[C@]2(CCCOC2)C[C@H]1c1ncc(-c2ccc(-c3ccc4c(ccc5nc([C@@H]6C[C@H]7C[C@H]7N6C(=O)[C@@H](NC(=O)OC)C(C)C)[nH]c54)c3)cc2)[nH]1)C(C)C [Compound 18] | 6 | 0.2 | 0.2 | 0.011 | 0.3
COC(=O)N[C@H](C(=O)N1C[C@]2(CCCOC2)C[C@H]1c1ncc(-c2ccc(-c3ccc4c(ccc5nc([C@@H]6C[C@@H]7CCCC[C@@H]7N6C(=O)[C@@H](NC(=O)OC)C(C)C)[nH]c54)c3)cc2)[nH]1)C(C)C [Compound 29] | 7 | 0.02 | 0.1 | 0.004 | 0.1
COC(=O)N[C@H](C(=O)N1C[C@]2(CCCOC2)C[C@H]1c1nc2ccc3cc(-c4ccc(-c5cnc([C@@H]6C[C@@H]7CCC[C@@H]7N6C(=O)[C@@H](NC(=O)OC)C(C)C)[nH]5)cc4)ccc3c2[nH]1)C(C)C [Compound 10] | 4 | 0.04 | 0.2 | 0.005 | 0.05
COC(=O)N[C@H](C(=O)N1C[C@@]2(CCCCO2)C[C@H]1c1nc(-c2ccc(-c3ccc4c(ccc5nc([C@@H]6CCCN6C(=O)[C@@H](NC(=O)OC)C(C)C)[nH]c54)c3)cc2)c[nH]1)C(C)C [Example 3] | 6 | 6 | 0.7 | 0.04 | 44
COC(=O)N[C@H](C(=O)N1CC2(CC2)C[C@H]1c1nc2ccc3cc(-c4ccc5c(ccc6nc([C@@H]7C[C@@]8(CCCOC8)CN7C(=O)[C@@H](NC(=O)OC)C(C)C)[nH]c65)c4)ccc3c2[nH]1)C(C)C [Compound 7] | 1 | 0.02 | 0.02 | 0.012 | 0.1
COC(=O)N[C@H](C(=O)N1C[C@]2(CCCOC2)C[C@H]1c1ncc(-c2ccc3c(c2)COc2cc(-c4cnc([C@@H]5C[C@@H]6CCCC[C@@H]6N5C(=O)[C@@H](NC(=O)OC)C(C)C)[nH]4)ccc2-3)[nH]1)C(C)C [Compound 15] | 5 | 0.01 | 0.2 | 0.012 | 0.1
COC(=O)N[C@H](C(=O)N1C[C@]2(CCCOC2)C[C@H]1c1nc2ccc3cc(-c4ccc5c(ccc6nc([C@@H]7C[C@@H]8COC[C@@H]8N7C(=O)[C@@H](NC(=O)OC)C(C)C)[nH]c65)c4)ccc3c2[nH]1)C(C)C [Compound 36] | 8 | 0.08 | 0.06 | 0.051 | 0.2
COC(=O)N[C@H](C(=O)N1C[C@]2(CCCO2)C[C@H]1c1ncc(-c2ccc(-c3ccc4c(ccc5nc([C@@H]6CCCN6C(=O)[C@@H](NC(=O)OC)C(C)C)[nH]c54)c3)cc2)[nH]1)C(C)C [Example 81] | 15 | 0.3 | 0.2 | 0.013 | 0.4
COC(=O)N[C@H](C(=O)N1C[C@]2(CCCOC2)C[C@H]1c1ncc(-c2ccc(-c3ccc4c(c3)OCc3nc([C@@H]5CCCN5C(=O)[C@@H](NC(=O)OC)C(C)C)[nH]c3-4)cc2)[nH]1)C(C)C [Compound 30] | 13 | 0.6 | 0.5 | 0.045 | 1
COC(=O)N[C@H](C(=O)N1C[C@]2(CCCOC2)C[C@H]1c1nc2ccc3cc(-c4ccc(-c5cnc([C@@H]6C[C@@H]7C[C@@H]7N6C(=O)[C@@H](NC(=O)OC)C(C)C)[nH]5)cc4)ccc3c2[nH]1)C(C)C [Compound 22] | 6 | 0.1 | 0.3 | 0.008 | 0.9
COC(=O)N[C@H](C(=O)N1C[C@]2(CCCOC2)C[C@H]1c1nc2ccc3cc(-c4ccc(-c5cnc([C@@H]6C[C@@H]7COC[C@@H]7N6C(=O)[C@@H](NC(=O)OC)C(C)C)[nH]5)cc4)ccc3c2[nH]1)C(C)C [Compound 34] | 4 | 0.03 | 0.09 | 0.041 | 0.08
COC(=O)N[C@H](C(=O)N1C[C@]2(CCCOC2)C[C@H]1c1ncc(-c2ccc(-c3ccc4c(ccc5nc([C@@H]6C[C@@H]7CCC[C@@H]7N6C(=O)[C@@H](NC(=O)OC)C(C)C)[nH]c54)c3)cc2)[nH]1)C(C)C [Compound 16] | 8 | 0.08 | 0.3 | 0.01 | 0.3
COC(=O)N[C@H](C(=O)N1C[C@]2(CCCOC2)C[C@H]1c1ncc(-c2ccc(-c3ccc4c(c3)CCCc3nc([C@@H]5C[C@@H]6CCCC[C@@H]6N5C(=O)[C@@H](NC(=O)OC)C(C)C)[nH]c3-4)cc2)[nH]1)C(C)C [Compound 40] | 8 | 0.6 | 0.7 | 0.008 | 1
COC(=O)N[C@H](C(=O)N1C[C@]2(CCCOC2)C[C@H]1c1nc2ccc3cc(-c4ccc(-c5cnc([C@@H]6C[C@H]7C[C@H]7N6C(=O)[C@@H](NC(=O)OC)C(C)C)[nH]5)cc4)ccc3c2[nH]1)C(C)C [Compound 5] | 2 | 0.03 | 0.06 | 0.011 | 0.1
COC(=O)N[C@H](C(=O)N1C[C@]2(CCOC2)C[C@H]1c1ncc(-c2ccc(-c3ccc4c(ccc5nc([C@@H]6CCCN6C(=O)[C@@H](NC(=O)OC)C(C)C)[nH]c54)c3)cc2)[nH]1)C(C)C [Compound 26] | 42 | 3 | 0.8 | 0.022 | 11
COC(=O)N[C@H](C(=O)N1C[C@]2(CCCOC2)C[C@H]1c1nc2ccc3cc(-c4ccc(-c5cnc([C@@H]6C[C@@H]7CCCC[C@@H]7N6C(=O)[C@@H](NC(=O)OC)C(C)C)[nH]5)cc4)ccc3c2[nH]1)C(C)C [Compound 24] | 3 | 0.02 | 0.09 | 0.006 | 0.07
COC(=O)N[C@H](C(=O)N1CCC[C@H]1c1ncc(-c2ccc(-c3ccc4c(ccc5nc([C@@H]6C[C@@]7(CCCOC7)CN6C(=O)[C@@H](NC(=O)OC)C(C)C)[nH]c54)c3)cc2)[nH]1)C(C)C [Compound 44] | 6 | 0.06 | 0.2 | 0.016 | 0.6
COC(=O)N[C@H](C(=O)N1CCC[C@H]1c1ncc(-c2ccc(-c3ccc4c(ccc5nc([C@@H]6C[C@]7(CCOC7)CN6C(=O)[C@@H](NC(=O)OC)C(C)C)[nH]c54)c3)cc2)[nH]1)C(C)C [Compound 51] | 4 | 0.1 | 0.07 | 0.016 | 0.4
